Among the data in patent US8450304B2, “4-azetidinyl-1-heteroaryl-cyclohexanol antagonists of CCR2” (Janssen Pharmaceutica N.V., priority 2008, dated 2013) are IC50 values, retold here.

T1 sequence (P41597 whole entry): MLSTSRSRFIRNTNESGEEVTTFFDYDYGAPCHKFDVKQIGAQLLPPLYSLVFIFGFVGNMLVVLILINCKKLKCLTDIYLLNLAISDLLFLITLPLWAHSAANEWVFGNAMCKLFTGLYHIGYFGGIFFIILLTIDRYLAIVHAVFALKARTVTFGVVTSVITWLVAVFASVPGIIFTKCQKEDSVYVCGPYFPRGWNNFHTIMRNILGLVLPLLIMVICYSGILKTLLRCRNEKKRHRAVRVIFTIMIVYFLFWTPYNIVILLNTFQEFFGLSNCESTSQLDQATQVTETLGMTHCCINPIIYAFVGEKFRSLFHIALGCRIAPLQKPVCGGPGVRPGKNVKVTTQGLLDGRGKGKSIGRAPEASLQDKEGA

The experiment concerns the target T1, CCR2 (Homo sapiens, UniProt P41597).
T1 construct: host or cells: THP-1 (human monocytic cell line), whole cells
As to the kind of experiment: MCP-1 Receptor Binding Assay in THP-1 Cells. The settings on record: 0.5 nM 125I labeled MCP-1, 2 hours at 30° C., read-out: Inhibition of MCP-1 Binding IC50, CCR2 Binding. As to the method:
Compounds of the invention were subjected to various representative biological tests. […] MCP-1 Receptor Binding Assay in THP-1 Cells
Human monocytic cell line THP-1 cells were obtained from American Type Culture Collection (Manassas, Va., USA). […] The cell density was maintained […].
1 μM cold MCP-1 was used for nonspecific binding.
The IC50 is the concentration at which inhibition is half-maximal. With `O=C(CNC(=O)c1cccc(C(F)(F)F)c1)NC1CN(C2CCC(O)(c3ccc(OCc4ccccc4)nc3)CC2)C1` (single isomer, unassigned) [Example 7a, N-({1-[4-(6-Benzyloxy-pyridin-3-yl)-4-hydroxy-cyclohexyl]-azetidin-3-ylcarbamoyl}-methyl)-3-trifluoromethyl-benzamide], the IC50 was found to be 1900 nM.

For `O=C(CNC(=O)c1cccc(C(F)(F)F)c1)NC1CN(C2CCC(O)(c3ccc(Br)cn3)CC2)C1` (single isomer, unassigned) [Example 25a, N-({1-[4-(5-Bromo-pyridin-2-yl)-4-hydroxy-cyclohexyl]-azetidin-3-ylcarbamoyl}-methyl)-3-trifluoromethyl-benzamide], the IC50 turned out to be 3100 nM.

In the case of `COc1ncc(C2(O)CCC(N3CC(NC(=O)CNC(=O)c4cccc(C(F)(F)F)c4)C3)CC2)cn1` (single isomer, unassigned) [Example 28a, N-({1-[4-Hydroxy-4-(2-methoxy-pyrimidin-5-yl)-cyclohexyl]-azetidin-3-ylcarbamoyl}-methyl)-3-trifluoromethyl-benzamide], the IC50 is 1100 nM.

In the case of `COc1ncc(C2(O)CCC(N3CC(NC(=O)CNC(=O)c4cccc(C(F)(F)F)c4)C3)CC2)c(OC)n1` (single isomer, unassigned) [Example 29a, N-({1-[4-(2,4-Dimethoxy-pyrimidin-5-yl)-4-hydroxy-cyclohexyl]-azetidin-3-ylcarbamoyl}-methyl)-3-trifluoromethyl-benzamide], the IC50 is 24000 nM.

For the compound `Cn1cc(Br)c(C2(O)CCC(N3CC(NC(=O)CNC(=O)c4cccc(C(F)(F)F)c4)C3)CC2)n1` (single isomer, unassigned) [Example 31a, N-({1-[4-(4-Bromo-1-methyl-1H-pyrazol-3-yl)-4-hydroxy-cyclohexyl]-azetidin-3-ylcarbamoyl}-methyl)-3-trifluoromethyl-benzamide], the IC50 worked out at 440 nM.

Regarding `O=C(CNC(=O)c1cccc(C(F)(F)F)c1)NC1CN(C2CCC(O)(c3ncc(CO)s3)CC2)C1` (single isomer, unassigned) [Example 35a, N-({1-[4-Hydroxy-4-(5-hydroxymethyl-thiazol-2-yl)-cyclohexyl]-azetidin-3-ylcarbamoyl}-methyl)-3-trifluoromethyl-benzamide], the IC50 was determined as 240 nM.

`O=C(CNC(=O)c1cccc(C(F)(F)F)c1)NC1CN(C2CCC(O)(c3nc4ccc(Br)cc4s3)CC2)C1` (single isomer, unassigned) [Example 36a, N-({1-[4-(6-Bromo-benzothiazol-2-yl)-4-hydroxy-cyclohexyl]-azetidin-3-ylcarbamoyl}-methyl)-3-trifluoromethyl-benzamide]: the IC50 came out at 3.8 nM.

As for `Cc1csc(C2(O)CCC(N3CC(NC(=O)CNC(=O)c4cccc(C(F)(F)F)c4)C3)CC2)n1` (single isomer, unassigned) [Example 38a, N-({1-[4-Hydroxy-4-(4-methyl-thiazol-2-yl)-cyclohexyl]-azetidin-3-ylcarbamoyl}-methyl)-3-trifluoromethyl-benzamide], the IC50 came out at 370 nM.

Take `C[Si](C)(C)c1ncc(C2(O)CCC(N3CC(NC(=O)CNC(=O)c4cccc(C(F)(F)F)c4)C3)CC2)s1` (single isomer, unassigned) [Example 39a, N-({1-[4-Hydroxy-4-(2-trimethylsilanyl-thiazol-5-yl)-cyclohexyl]-azetidin-3-ylcarbamoyl}-methyl)-3-trifluoromethyl-benzamide]: the IC50 was determined as 13 nM.

`Cc1ncc(C2(O)CCC(N3CC(NC(=O)CNC(=O)c4cccc(C(F)(F)F)c4)C3)CC2)s1` (single isomer, unassigned) [Example 41a, N-({1-[4-Hydroxy-4-(2-methyl-thiazol-5-yl)-cyclohexyl]-azetidin-3-ylcarbamoyl}-methyl)-3-trifluoromethyl-benzamide]: the IC50 is 200 nM.

On to `C#Cc1ncc(C2(O)CCC(N3CC(NC(=O)CNC(=O)c4cccc(C(F)(F)F)c4)C3)CC2)s1` (single isomer, unassigned) [Example 44a, N-({1-[4-(2-Ethynyl-thiazol-5-yl)-4-hydroxy-cyclohexyl]-azetidin-3-ylcarbamoyl}-methyl)-3-trifluoromethyl-benzamide], for which the half-maximal inhibitory concentration (IC50) came out at 340 nM.

On to `C[S+]([O-])c1ncc(C2(O)CCC(N3CC(NC(=O)CNC(=O)c4cccc(C(F)(F)F)c4)C3)CC2)s1` (single isomer, unassigned) [Example 46, N-({1-[4-Hydroxy-4-(2-methanesulfinyl-thiazol-5-yl)-cyclohexyl]-azetidin-3-ylcarbamoyl}-methyl)-3-trifluoromethyl-benzamide], for which the IC50 was 660 nM.

In the case of `CS(=O)(=O)c1ncc(C2(O)CCC(N3CC(NC(=O)CNC(=O)c4cccc(C(F)(F)F)c4)C3)CC2)s1` (single isomer, unassigned) [Example 47a, N-({1-[4-Hydroxy-4-(2-methanesulfonyl-thiazol-5-yl)-cyclohexyl]-azetidin-3-ylcarbamoyl}-methyl)-3-trifluoromethyl-benzamide], the IC50 came out at 260 nM.

Turning to `Cc1cc(C2(O)CCC(N3CC(NC(=O)CNC(=O)c4cccc(C(F)(F)F)c4)C3)CC2)sn1` (single isomer, unassigned) [Example 58a, N-({1-[4-Hydroxy-4-(3-methyl-isothiazol-5-yl)-cyclohexyl]-azetidin-3-ylcarbamoyl}-methyl)-3-trifluoromethyl-benzamide], the IC50 was 90 nM.

With `Cc1ccc(C2(O)CCC(N3CC(NC(=O)CNC(=O)c4cc(F)cc(C(F)(F)F)c4)C3)CC2)cn1` (single isomer, unassigned) [Example 64a, 3-Fluoro-N-({1-[4-hydroxy-4-(6-methyl-pyridin-3-yl)-cyclohexyl]-azetidin-3-ylcarbamoyl}-methyl)-5-trifluoromethyl-benzamide], the IC50 was determined as 37 nM.

On to `Cc1ccc(C2(O)CCC(N3CC(NC(=O)CNC(=O)c4cc(C(F)(F)F)cc(C(F)(F)F)c4)C3)CC2)cn1` (single isomer, unassigned) [Example 66a, N-({1-[4-Hydroxy-4-(6-methyl-pyridin-3-yl)-cyclohexyl]-azetidin-3-ylcarbamoyl}-methyl)-3,5-bis-trifluoromethyl-benzamide], for which the IC50 is 330 nM.

In the case of `O=C(CNC(=O)c1cc(C(F)(F)F)cc(C(F)(F)F)c1)NC1CN(C2CCC(O)(c3nccs3)CC2)C1` (single isomer, unassigned) [Example 67a, N-{[1-(4-Hydroxy-4-thiazol-2-yl-cyclohexyl)-azetidin-3-ylcarbamoyl]-methyl}-3,5-bis-trifluoromethyl-benzamide], the IC50 worked out at 370 nM.

For `Cc1ccc(C2(O)CCC(N3CC(NC(=O)CNC(=O)c4cc(C(F)(F)F)ccc4C(F)(F)F)C3)CC2)cn1` (single isomer, unassigned) [Example 69a, N-({1-[4-Hydroxy-4-(6-methyl-pyridin-3-yl)-cyclohexyl]-azetidin-3-ylcarbamoyl}-methyl)-2,5-bis-trifluoromethyl-benzamide], the IC50 stood at 240 nM.

`Cc1ccc(C2(O)CCC(N3CC(NC(=O)CNC(=O)c4cc(C(F)(F)F)ccc4Cl)C3)CC2)cn1` (single isomer, unassigned) [Example 70a, 2-Chloro-N-({1-[4-hydroxy-4-(6-methyl-pyridin-3-yl)-cyclohexyl]-azetidin-3-ylcarbamoyl}-methyl)-5-trifluoromethyl-benzamide]: the IC50 is 590 nM.

Regarding `O=C(CNC(=O)c1cccc(C(F)(F)F)c1)NC1CN(C2CCC(O)(c3cccnc3)CC2)C1` (stereo not drawn) [Example 15, N-{[1-(4-Hydroxy-4-pyridin-3-yl-cyclohexyl)-azetidin-3-ylcarbamoyl]-methyl}-3-trifluoromethyl-benzamide], the IC50 was found to be 190 nM.

As for `COc1ccc(C2(O)CCC(N3CC(NC(=O)CNC(=O)c4ccc(C(F)(F)F)cc4)C3)CC2)cn1` (stereo not drawn) [Example 16, N-({1-[4-Hydroxy-4-(6-methoxy-pyridin-3-yl)-cyclohexyl]-azetidin-3-ylcarbamoyl}-methyl)-4-trifluoromethyl-benzamide], the IC50 was found to be 6450 nM.

For `COc1ccc(C2(O)CCC(N3CC(NC(=O)CNC(=O)c4cc(F)c(F)c(F)c4)C3)CC2)cn1` (stereo not drawn) [Example 17, 3,4,5-Trifluoro-N-({1-[4-hydroxy-4-(6-methoxy-pyridin-3-yl)-cyclohexyl]-azetidin-3-ylcarbamoyl}-methyl)-benzamide], the IC50 was determined as 6400 nM.

For the compound `COc1ccc(C2(O)CCC(N3CC(NC(=O)CNC(=O)c4ccc(Cl)c(Cl)c4)C3)CC2)cn1` (stereo not drawn) [Example 18, 3,4-Dichloro-N-({1-[4-hydroxy-4-(6-methoxy-pyridin-3-yl)-cyclohexyl]-azetidin-3-ylcarbamoyl}-methyl)-benzamide], the IC50 was determined as 120 nM.

Regarding `COc1ccc(C2(O)CCC(N3CC(NC(=O)CNC(=O)c4cc(F)cc(F)c4)C3)CC2)cn1` (stereo not drawn) [Example 19, 3,5-Difluoro-N-({1-[4-hydroxy-4-(6-methoxy-pyridin-3-yl)-cyclohexyl]-azetidin-3-ylcarbamoyl}-methyl)-benzamide], the IC50 stood at 4300 nM.

Consider `COc1ccc(C2(O)CCC(N3CC(NC(=O)CNC(=O)c4ccc5c(c4)OCO5)C3)CC2)cn1` (stereo not drawn) [Example 20, Benzo[1,3]dioxole-5-carboxylic acid ({1-[4-hydroxy-4-(6-methoxy-pyridin-3-yl)-cyclohexyl]-azetidin-3-ylcarbamoyl}-methyl)-amide], for which the IC50 amounted to 6900 nM.

For the compound `COc1ccc(C2(O)CCC(N3CC(NC(=O)CNC(=O)c4cccc(C#N)c4)C3)CC2)cn1` (stereo not drawn) [Example 21, 3-Cyano-N-({1-[4-hydroxy-4-(6-methoxy-pyridin-3-yl)-cyclohexyl]-azetidin-3-ylcarbamoyl}-methyl)-benzamide], the IC50 worked out at 7500 nM.

For the compound `COc1ccc(C2(O)CCC(N3CC(NC(=O)CNC(=O)c4cccc(C)c4)C3)CC2)cn1` (stereo not drawn) [Example 22, N-({1-[4-Hydroxy-4-(6-methoxy-pyridin-3-yl)-cyclohexyl]-azetidin-3-ylcarbamoyl}-methyl)-3-methyl-benzamide], the IC50 is 2300 nM.
